Experimental data: ChEMBL document CHEMBL1155354, “Carbonic anhydrase inhibitors. Inhibition of the Rv1284 and Rv3273 beta-carbonic anhydrases from Mycobacterium tuberculosis with diazenylbenzenesulfonamides” (Bioorg Med Chem Lett, 2009)

Columns and labels:
[1] = target: T1, PROBABLE TRANSMEMBRANE CARBONIC ANHYDRASE (CARBONATE DEHYDRATASE) (CARBONIC DEHYDRATASE) (Mycobacterium tuberculosis, UniProt P96878)
T1 sequence (P96878 whole entry): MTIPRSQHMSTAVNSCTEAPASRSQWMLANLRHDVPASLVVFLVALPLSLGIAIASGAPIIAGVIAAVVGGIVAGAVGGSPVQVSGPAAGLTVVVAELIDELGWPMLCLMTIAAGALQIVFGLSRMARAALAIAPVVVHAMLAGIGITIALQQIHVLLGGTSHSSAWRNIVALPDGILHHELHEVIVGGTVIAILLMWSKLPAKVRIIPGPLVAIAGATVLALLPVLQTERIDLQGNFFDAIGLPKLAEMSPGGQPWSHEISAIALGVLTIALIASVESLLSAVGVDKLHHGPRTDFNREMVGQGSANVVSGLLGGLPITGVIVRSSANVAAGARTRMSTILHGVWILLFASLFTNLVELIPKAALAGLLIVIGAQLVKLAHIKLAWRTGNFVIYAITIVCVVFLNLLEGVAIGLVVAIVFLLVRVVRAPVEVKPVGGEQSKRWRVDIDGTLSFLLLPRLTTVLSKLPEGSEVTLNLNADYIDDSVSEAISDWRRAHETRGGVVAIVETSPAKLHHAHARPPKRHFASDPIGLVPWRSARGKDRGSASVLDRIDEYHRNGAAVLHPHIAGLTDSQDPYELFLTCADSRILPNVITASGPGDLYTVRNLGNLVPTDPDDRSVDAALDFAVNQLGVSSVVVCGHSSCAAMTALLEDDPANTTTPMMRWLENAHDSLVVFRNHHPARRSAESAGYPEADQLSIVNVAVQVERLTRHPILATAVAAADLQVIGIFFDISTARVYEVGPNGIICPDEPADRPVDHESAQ
Description: Inhibition of Mycobacterium tuberculosis recombinant carbonic anhydrase Rv3273 by stopped flow CO2 hydration assay

[2] = target: T2, Beta-carbonic anhydrase 1 (Mycobacterium tuberculosis, UniProt P9WPJ7)
T2 sequence (P9WPJ7 whole entry): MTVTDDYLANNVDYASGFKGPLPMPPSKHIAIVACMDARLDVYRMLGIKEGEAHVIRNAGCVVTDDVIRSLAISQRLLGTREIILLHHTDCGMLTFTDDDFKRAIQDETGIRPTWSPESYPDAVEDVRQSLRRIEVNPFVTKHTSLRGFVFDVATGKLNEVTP

[3] = target: Carbonic anhydrase 2 (Homo sapiens, UniProt P00918)
Description: Inhibition of human cloned full length carbonic anhydrase 2 by stopped flow CO2 hydration assay

Row | SMILES | Ki [1] | Ki [2] | Ki [3]
1 | Nc1ccc(/N=N/c2ccc(S(N)(=O)=O)cc2)cc1 | 8.78 µM | 7.2 µM | –
2 | Nc1ccc(S(=O)(=O)NCc2ccc(S(N)(=O)=O)cc2)cc1 | 2.21 µM | – | –
3 | NS(=O)(=O)c1ccc(/N=N/c2ccc(NCS(=O)(=O)O)cc2)cc1 | 8.9 µM | 6.78 µM | –
4 | CN(C)c1ccc(/N=N/c2ccc(S(N)(=O)=O)cc2)cc1 | 30.7 µM | 6.86 µM | 0.638 µM
5 | NS(=O)(=O)c1ccc(/N=N/c2ccc(O)cc2)cc1 | 12.4 µM | 9.27 µM | –
6 | CN(CS(=O)(=O)O)c1ccc(/N=N/c2cccc(S(N)(=O)=O)c2)cc1 | 7.4 µM | 63 µM | –
7 | CN(CS(=O)(=O)O)c1ccc(/N=N/c2ccc(S(N)(=O)=O)cc2)cc1 | 9.03 µM | 8.71 µM | –
8 | NS(=O)(=O)c1cccc(/N=N/c2ccc(NCS(=O)(=O)O)cc2)c1 | 9.45 µM | 7.51 µM | –
9 | Nc1ccc(/N=N/c2cccc(S(N)(=O)=O)c2)cc1 | 8.68 µM | 7 µM | –
10 | CNc1ccc(/N=N/c2ccc(S(N)(=O)=O)cc2)cc1 | 9.18 µM | 7.69 µM | 0.093 µM
11 | NS(=O)(=O)c1cccc(/N=N/c2ccc(O)cc2)c1 | 9.23 µM | 8.97 µM | 0.106 µM
12 | CN(C)c1ccc(/N=N/c2cccc(S(N)(=O)=O)c2)cc1 | 9.36 µM | 7.54 µM | –
13 | Nc1ccc(S(=O)(=O)NCCc2ccc(S(N)(=O)=O)cc2)cc1 | 0.17 µM | – | –
14 | CCN[C@H]1CN(CCCOC)S(=O)(=O)c2sc(S(N)(=O)=O)cc21 [BRINZOLAMIDE] | 0.201 µM | – | –
15 | NCc1ccc(S(N)(=O)=O)cc1 [MAFENIDE] | 7.33 µM | – | –
16 | CC(=O)Nc1cc2c(O)c(/N=N/c3ccc(S(N)(=O)=O)cc3)c(S(=O)(=O)O)cc2cc1S(=O)(=O)O [PRONTOCIL] | 0.148 µM | 0.126 µM | –
17 | O=S(=O)(O)CNc1ccccc1 [SODIUM PHENYLAMINOMETHANESULFONATE] | 8.9 µM | 8.67 µM | –
18 | CN(CS(=O)(=O)O)c1ccccc1 [SODIUM(METHYL(PHENYL)AMINO)METHANESULFONATE] | 9.11 µM | 7.86 µM | –
